From patent US6316439A, “Galanthamine derivatives as acetylcholinesterase inhibitors” (priority 1993, dated 2001)
Counter-ions that a name gives are not always drawn. Like-named read-outs stand apart in the source and are kept apart here.

Experiments:
mice = experiment: Dark Avoidance Assay (SDDA), reversal of scopolamine induced memory deficit; format: in vivo; conditions: s.c., retest after 24 hours
Procedure: This utility can also be ascertained by determining the ability of these compounds to restore cholinergically deficient memory in the Dark Avoidance Assay. In this assay mice are tested for their ability to remember an unpleasant stimulus for a period of 24 hours. A mouse is placed in a chamber that contains a dark compartment; a strong incandescent light drives it to the dark compartment, where an electric shock is administered through metal plates on the floor. The animal is removed from the testing apparatus and tested again, 24 hours later, for the ability to remember the electric shock.
If scopolamine, an anticholinergic that is known to cause memory impairment, is administered before an animal's initial exposure to the test chamber, the animal re-enters the dark compartment shortly after being placed in the test chamber 24 hours later. This effect of scopolamine is blocked by an active test compounds, resulting in a greater interval before re-entry into the dark compartment.
The test results are expressed as the percent of a group of animals in which the effect of scopolamine is blocked, as manifested by an increased interval between being placed in the test chamber and reentering the dark compartment. Results of Dark Avoidance Assay for some of the compounds of this invention are presented in Table II along with a result for a reference compounds.

acetylcholinesterase = acetylcholinesterase (Homo sapiens, UniProt P22303); experiment: Acetylcholinesterase Inhibition Assay (photometric method of Ellman et al.); format: biochemical
Chain of acetylcholinesterase (P22303 32-614): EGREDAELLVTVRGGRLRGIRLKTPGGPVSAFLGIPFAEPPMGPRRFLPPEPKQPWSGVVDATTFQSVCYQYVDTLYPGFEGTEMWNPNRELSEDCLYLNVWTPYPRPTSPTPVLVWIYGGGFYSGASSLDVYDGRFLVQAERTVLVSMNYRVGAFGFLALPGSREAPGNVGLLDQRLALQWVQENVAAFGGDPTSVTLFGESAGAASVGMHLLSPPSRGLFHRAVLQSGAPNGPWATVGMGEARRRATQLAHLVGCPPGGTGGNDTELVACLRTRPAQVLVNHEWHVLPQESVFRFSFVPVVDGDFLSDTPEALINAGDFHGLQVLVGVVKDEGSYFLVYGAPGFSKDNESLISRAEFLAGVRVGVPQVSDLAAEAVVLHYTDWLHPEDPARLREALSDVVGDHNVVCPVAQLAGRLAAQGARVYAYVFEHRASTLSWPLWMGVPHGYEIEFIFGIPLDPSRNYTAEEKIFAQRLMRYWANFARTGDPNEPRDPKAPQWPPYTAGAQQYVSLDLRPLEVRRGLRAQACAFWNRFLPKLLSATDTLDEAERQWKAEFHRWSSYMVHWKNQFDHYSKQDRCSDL

Structure (SMILES) | Percent of Animals with Scopolamine Induced Memory Deficit Reversal (mice; 0.10 mg/kg) | further results
Nc1c2c(nc3ccccc13)CCCC2 [Tacrine, reference compound] | – | Percent of Animals with Scopolamine Induced Memory Deficit Reversal (mice; 0.31 mg/kg): 33% of Animals
CN1CC[C@@]23C=C[C@H](O)C[C@@H]2Oc2c(OC(=O)C(C)(C)C)ccc(c23)C1 [Example 3, 6-O-Demethyl-6-O-(t-butylcarbonyl)galanthamine hydrochloride] | – | IC50 (acetylcholinesterase; photometric method of Ellman et al., read-out: IC50 CHE I): 2690 nM
CC(C)OC(=O)OC1C=CC23CCN(C)Cc4ccc(OC(=O)C(C)(C)C)c(c42)OC3C1.Cl.O (stereo not drawn) [6-O-Demethyl-3-O-(2-propoxy-carbonyl)-6-O-(t-butylcarbonyl)-galanthamine hydrochloride hydrate] | 53% of Animals | –
CC(C)OC(=O)Oc1ccc2c3c1O[C@H]1C[C@@H](O)C=C[C@@]31CCN(C)C2 [Example 9, 6-O-Demethyl-6-O-(prop-2-yl-oxycarbonyl)galanthamine hydrochloride] | 33% of Animals | –
CN1CC[C@@]23C=C[C@H](O)C[C@@H]2Oc2c(OC(=O)C(C)(C)C)ccc(c23)C1 [6-O-Demethyl-6-O-(trimethylacetyl)-galanthamine] | 53% of Animals | –
CC(C)OC(=O)Oc1ccc2c3c1O[C@H]1C[C@@H](O)C=C[C@@]31CCN(C)C2 [6-O-Demethyl-6-O-(2-propoxycarbonyl)galanthamine] | – | IC50 (acetylcholinesterase): 1610 nM
